Laboratory results reported in ChEMBL document CHEMBL5727557, “SHP2 inhibitors and uses thereof” (2020).

Biological target: T1, Tyrosine-protein phosphatase non-receptor type 11 (Homo sapiens, UniProt Q06124)
T1 sequence (Q06124 whole entry): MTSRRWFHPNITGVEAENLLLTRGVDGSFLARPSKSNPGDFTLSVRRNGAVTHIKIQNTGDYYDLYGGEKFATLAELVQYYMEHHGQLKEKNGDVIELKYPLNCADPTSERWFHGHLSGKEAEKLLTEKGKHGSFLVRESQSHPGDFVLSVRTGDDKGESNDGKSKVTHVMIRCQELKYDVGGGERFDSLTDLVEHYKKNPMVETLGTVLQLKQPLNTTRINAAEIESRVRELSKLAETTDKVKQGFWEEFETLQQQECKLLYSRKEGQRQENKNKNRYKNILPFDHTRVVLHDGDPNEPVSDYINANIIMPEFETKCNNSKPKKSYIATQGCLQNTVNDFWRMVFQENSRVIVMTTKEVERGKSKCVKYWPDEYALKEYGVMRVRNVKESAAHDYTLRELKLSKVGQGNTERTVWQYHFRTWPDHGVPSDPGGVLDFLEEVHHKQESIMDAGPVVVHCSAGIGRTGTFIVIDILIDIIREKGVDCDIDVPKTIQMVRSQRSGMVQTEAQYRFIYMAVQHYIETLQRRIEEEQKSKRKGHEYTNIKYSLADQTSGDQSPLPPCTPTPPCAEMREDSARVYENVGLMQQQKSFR
Assay: SHP2 Phosphatase Assay: IC50 values were determined at room temperature in 384-well black polystyrene plate, using a final reaction volume of 15 μl and the following assay buffer conditions: 60 mM Hepes (pH=7.2), 75 mM NaCl, 75 mM KCl, and 1 mM EDTA, 0.05% P-20, 5 mM dithiothreitol (DTT). Full length SHP2 enzyme (diluted to 0.1 nM in reaction buffer) were co-incubated with 1 uM IRS-1 peptide and 0.01 nM to 10 μM compounds of the disclosure for 60 min. The surrogate substrate DiFMUP (5 μL, […]) was added, and incubated at rt for 60 min. The reaction was then quenched by the addition of 5 μL of a 40 μM solution of bpV(Phen). The fluorescence signal was monitored using a microplate reader (Envision, Perkin-Elmer) using excitation and emission wavelengths of 360 nm and 450 nm, respectively. The inhibitor dose-response curves were analyzed using normalized IC50 regression curve fitting with control-based normalization.

An IC50 of less than 50 nM was found for `CC1(CN)CCN(c2ncc(Sc3cccc(NC(=O)c4c(O)nc5cnccn5c4=O)c3Cl)[nH]c2=O)CC1` in this work.
